Patent US20070014739A1, “Compositions and methods for controlling biofilms and bacterial infections” (priority 2005, published 2007)

Tests used:
[1] = test system: E. coli laboratory strain JM109; assay: Inhibition of biofilm formation, crystal violet, 96 well plates; format: cell-based; conditions: Escherichia coli, JM 109, compared to the controls, read-out: inhibited biofilm formation of the JM109 strain
E. coli (ATCC 25922) = assay: Antibacterial effect (MIC), NCCLS procedures; format: cell-based; conditions: Escherichia coli, ATCC25922; studied at 64 μg/mL; read-out: MIC (minimal inhibitory concentration)
Experimental: (§1) Using the appropriate NCCLS procedures, the antibacterial effect of asiatic acid on Haemophilus influenzae (ATCC 10211), E. coli (ATCC 25922), and P. aeruginosa (ATCC 27853) was studied at 64 μg/mL.

[2] = test system: Haemophilus influenzae (ATCC 10211); assay: Antibacterial effect (MIC), NCCLS procedures; format: cell-based; conditions: ATCC10211, studied at 64 μg/mL, read-out: MIC (minimal inhibitory concentration)
Experimental: as §1

[3] = test system: P. aeruginosa (ATCC 27853); assay: Antibacterial effect (MIC), NCCLS procedures; format: cell-based; conditions: Pseudomonas aeruginosa, ATCC27853; studied at 64 μg/mL; read-out: MIC (minimal inhibitory concentration)
Experimental: as §1

[4] = test system: Clinical isolates of P. aeruginosa from cystic fibrosis patients; assay: Detachment of mature biofilms on peg lids, crystal violet; format: cell-based; conditions: 5 ug/ml, approximately 40 hours; eighteen clinical isolates; compared to negative controls
Experimental: Clinical isolates of P. aeruginosa from cystic fibrosis patients were passed twice on tryptic soy agar with 5% sheep blood after retrieval from −80° C. and then grown overnight in CAMHB. After dilution of a culture to 0.5 McFarland in broth medium, 100 μl was transferred in triplicate to wells of a flat-bottom 96-well microtiter plate. Bacterial biofilms were formed by immersing the pegs of a modified polystyrene microtiter lid into this biofilm growth plate, followed by incubation at 37° C. for 20 hours with no movement.
Peg lids were rinsed three times in sterile water, placed onto flat-bottom microtiter plates containing biofilm inhibitors at 5 ug/ml in 100 μl of CAMHB per well and incubated for approximately 40 hours at 37° C.
Pegs were rinsed, placed in a 0.1% (wt/vol) crystal violet solution for 15 min, rinsed again, and dried for several hours. To solubilize adsorbed crystal violet, pegs were incubated in 95% ethanol (150 μl per well of a flat-bottom microtiter plate) for 15 min. The absorbance was read at 590 nm on a plate reader. The wells containing asiatic acid were compared to negative controls. Negative controls were prepared as stated above but without asiatic acid.

E. coli UT189[pCOMGFP] = assay: Biofilm pods (IBCs) in bladders of infected mice, intravesical compound, confocal microscopy; format: in vivo, Escherichia coli; conditions: vs controls
Experimental: The procedures in this example has been previously reported by Justice, S. et al. Differentiation and development pathways of uropathogenic Escherichia coli in urinary tract pathogenesis. PNAS, 2004, 101(5), p. 1333-1338. Briefly, E. coli UT189[pCOMGFP] was prepared after retrieval from frozen stocks by inoculating appropriately in LB medium statically for approximately 20 hours. Cells were harvested and suspended in 1 ml of PBS. Cells were diluted appropriately to achieve approximately a 10^8 CFU or 10^7 CFU input into C3H/HeN mice (2 mice per group).
Mice were deprived of water for approximately two hours. In experiment 1, all mice were anesthetized with 0.15 cc ketamine cocktail. In experiment 2, all mice were anesthetized with isofluorane. In experiment 1, urine was dispelled from the bladders and approximately 40 μg/ml of test compound or an appropriate amount of ethanol as control was introduced into the bladders via catheterization of the urethra using a tubing coated tuberculin syringe. 30 minutes was allowed to elapse. In experiment 2, bladders were not pre-incubated with test compounds. Bladders were then expelled and an inoculum of 10^8 CFU (Experiment 1) or 10^7 CFU (Experiment 2) of E. coli containing 40 μg/ml of test compound or equivalent amount of ethanol as controls were introduced into the bladders as indicated above.
In experiment 1 five hours elapsed and in experiment 2 six hours elapsed, and then mice were anesthetized and sacrificed appropriately. The bladders were removed, bisected, stretched, and fixed in 3% paraformaldehyde for 1 hour at room temperature. Bladders were then permeabilized in 0.01% Triton/PBS for 10 minutes and counter stained with TOPRO3 (Molecular Probes) for 10 minutes for visualization by confocal microscopy. Bladders were mounted on Prolong antifade (Molecular Probes).

C[C@H]1[C@H](C)CC[C@]2(C(=O)O)CC[C@]3(C)C(=CC[C@@H]4[C@@]5(C)C[C@@H](O)[C@H](O)[C@@](C)(CO)[C@@H]5CC[C@]43C)[C@H]12 [Asiatic acid]
inhibition at 5 µg/mL ([1]; 5 ug/ml): ~70%
inhibition at 10 µg/mL ([1]; 10 ug/ml): ~80%
MIC (E. coli (ATCC 25922)): > 64 µg/mL
MIC [2]: > 64 µg/mL
MIC [3]: > 64 µg/mL
average detachment of mature biofilms [4]: approximately 50%
reduction in biofilm pods or IBCs in the bladders of mice (E. coli UT189[pCOMGFP]; experiment 1: C3H/HeN mice, 40 μg/ml intravesical with 30 min pre-incubation, 10^8 CFU, five hours): 77%
reduction in large biofilm pods or large IBCs in the bladders of mice (E. coli UT189[pCOMGFP]; experiment 2: C3H/HeN mice, 40 μg/ml in inoculum, no pre-incubation, 10^7 CFU, six hours): ~60%
